# Test results from patent US10759749B2, “Therapeutic agent for diabetes” (JCR Pharmaceuticals Co., Ltd., priority 2016, dated 2020).
# Read-outs that look alike come from different tables or passages of the source.
# What was measured:
# MIN6-K8 cells [1] = assay: Insulin secretion stimulation test using MIN6-K8 cells; format: cell-based; conditions: for insulin secretion from MIN6-K8 cells (relative to control): 1 μM to 100 μM test compound, 11.2 mM glucose, 30 minutes; for amount of insulin secretion from MIN6-K8 cells at 100 μM compared with 30 μM: concentration of 100 μM
# Description: MIN6-K8 cells (cells similar to the MIN6-m9 cell line deposited as FERM P-18081) were cultured in Dulbecco's modified Eagle's medium (DMEM medium) supplemented with 10% FBS, 50 μM 2-mercaptoethanol, 100 mg/L streptomycin and 60.5 mg/L penicillin sulfate at 37° C. After washing the MIN 6-K8 cells twice with medium, the cells were washed twice with 133.4 mM NaCl, 4.7 mM KCl, 1.2 mM KH2PO4, 1.2 mM MgSO4, 2.5 mM CaCl2, 5.0 mM NaHCO3, 2.8 mM glucose, 0.1% BSA and 10 mM HEPES buffer (pH 7.4) for 30 minutes. Cells were then cultured for 30 minutes in the KRBH buffer containing the test compound and 11.2 mM glucose. After incubation, the concentration of insulin contained in the KRBH buffer solution was measured using an insulin assay kit (CIS Bio International Inc.). The concentration of insulin was obtained as a relative value when the concentration of insulin when the test compound was not added was taken as 1. Here, DSC108 and C8 were used as test compounds, and the abilities to promote insulin secretion of both drugs were compared within a concentration range of 1 μM to 100 μM. Measurement was carried out with n=3.
# For the 1,1-diphenyl-4-cyclohexyl-semicarbazide derivatives numbered 2 to 7 shown in Table 1, an insulin secretion stimulation test using the above MIN6-K8 cells was performed. The concentration of the test compound was 100 μM, and the amount of secretion when the amount of insulin secreted when no test compound was added was taken as 1 was measured. Incidentally, the number 1 is 1,1-diphenyl-4-cyclohexyl-semicarbazide represented by the chemical formula (18). Numbers 2 to 7 are compounds in which one of hydrogen atoms on the cyclohexyl ring of 1,1-diphenyl-4-cyclohexyl-semicarbazide is substituted with a carboxyl group.
# MIN6-K8 cells [2] = assay: Measurement of intracellular calcium ion concentration (Fura-2-AM); format: cell-based; conditions: 3 μM to 30 μM, 2.8 mM glucose
# Description: In accordance with the method described in “Shimaoto K. Mol Pharmacol. 53, 195-201 (1998)”, measurement of intracellular calcium concentration was performed using fura-2-acetoxymethyl ester (Fura-2-AM, Dojindo Inc.) which is a calcium ion sensitive fluorescent reagent. MIN6-K8 cells were grown in Dulbecco's modified Eagle medium (DMEM medium) supplemented with 10% FBS, 50 μM 2-mercaptoethanol, 100 mg/L streptomycin and 60.5 mg/L penicillin sulfate in a humidified condition of 5% CO2, at 37° C.
# MIN6-K8 cells were then left alone in KRBH buffer containing 5 μM Fura-2-AM and 2.8 mM glucose at 37° C. for 20 minutes. Then, KRBH buffer containing 3 μM, 10 μM or 30 μM of DSC108 was each added as a test compound and fluorescence intensity at 340 nm and 380 nm were measured using a dual wavelength fluorometer (Fluoroskan Ascent CF, Labsystem Inc.) over time for 20 minutes and the values of “fluorescence intensity at 340 nm/fluorescence intensity at 380 nm” were determined. […] Measurement was carried out with n=4.
# pancreatic β cells = assay: Electrophysiological test using pancreatic β cells (membrane potential, perforated patch clamp); format: cell-based, C57BL/6 mice; conditions: in the presence of 30 μM compound; −69±2 mV in its absence
# Description: Islets were isolated from C57BL/6 mice by collagenase digestion method in accordance with the method described “in Shibasaki T. Proc Natl Acad Sci USA. 104, 19333-8 (2007)”. The pancreatic islet cells were dispersed and cultured in DMEM supplemented with 10% FBS, and then plated on a 3.5 cm dish sheeted prior to the experiment with a glass flake coated with collagen.
# Membrane potential of pancreatic β cells was measured by a perforated patch clamp method (Gonoi T J J. Biol. Chem., 269: 16989-92 (1994)) in current clamp mode. As an extracellular solution, 5 mM HEPES buffer-NaOH (pH 7.4) containing 143 mM NaCl, 5.4 mM KCl, 1.8 mM CaCl2, 0.5 mM MgCl2, 0.33 mM NaHPO4 and 5.5 mM glucose was used. As a pipette solution, 11 mM HEPES-KOH buffer (pH 7.4) containing 107 mM KCl, 11 mM EGTA, 2 mM MgSO4, 1 mM CaCl2 and […] ATP-K2 was used. Under this condition, outward current induced by 30 μM DSC108 was measured by a pierced patch clamp assay.
# human SUR1 (hSUR1) = biological target: T1, human SUR1 (hSUR1) (Homo sapiens, UniProt Q09428); assay: [^3H] glibenclamide competition test; format: binding; conditions: 10 nM [^3H] glibenclamide, 30 minutes
# T1 construct: expressed in transfected cells
# T1 sequence (Q09428 whole entry): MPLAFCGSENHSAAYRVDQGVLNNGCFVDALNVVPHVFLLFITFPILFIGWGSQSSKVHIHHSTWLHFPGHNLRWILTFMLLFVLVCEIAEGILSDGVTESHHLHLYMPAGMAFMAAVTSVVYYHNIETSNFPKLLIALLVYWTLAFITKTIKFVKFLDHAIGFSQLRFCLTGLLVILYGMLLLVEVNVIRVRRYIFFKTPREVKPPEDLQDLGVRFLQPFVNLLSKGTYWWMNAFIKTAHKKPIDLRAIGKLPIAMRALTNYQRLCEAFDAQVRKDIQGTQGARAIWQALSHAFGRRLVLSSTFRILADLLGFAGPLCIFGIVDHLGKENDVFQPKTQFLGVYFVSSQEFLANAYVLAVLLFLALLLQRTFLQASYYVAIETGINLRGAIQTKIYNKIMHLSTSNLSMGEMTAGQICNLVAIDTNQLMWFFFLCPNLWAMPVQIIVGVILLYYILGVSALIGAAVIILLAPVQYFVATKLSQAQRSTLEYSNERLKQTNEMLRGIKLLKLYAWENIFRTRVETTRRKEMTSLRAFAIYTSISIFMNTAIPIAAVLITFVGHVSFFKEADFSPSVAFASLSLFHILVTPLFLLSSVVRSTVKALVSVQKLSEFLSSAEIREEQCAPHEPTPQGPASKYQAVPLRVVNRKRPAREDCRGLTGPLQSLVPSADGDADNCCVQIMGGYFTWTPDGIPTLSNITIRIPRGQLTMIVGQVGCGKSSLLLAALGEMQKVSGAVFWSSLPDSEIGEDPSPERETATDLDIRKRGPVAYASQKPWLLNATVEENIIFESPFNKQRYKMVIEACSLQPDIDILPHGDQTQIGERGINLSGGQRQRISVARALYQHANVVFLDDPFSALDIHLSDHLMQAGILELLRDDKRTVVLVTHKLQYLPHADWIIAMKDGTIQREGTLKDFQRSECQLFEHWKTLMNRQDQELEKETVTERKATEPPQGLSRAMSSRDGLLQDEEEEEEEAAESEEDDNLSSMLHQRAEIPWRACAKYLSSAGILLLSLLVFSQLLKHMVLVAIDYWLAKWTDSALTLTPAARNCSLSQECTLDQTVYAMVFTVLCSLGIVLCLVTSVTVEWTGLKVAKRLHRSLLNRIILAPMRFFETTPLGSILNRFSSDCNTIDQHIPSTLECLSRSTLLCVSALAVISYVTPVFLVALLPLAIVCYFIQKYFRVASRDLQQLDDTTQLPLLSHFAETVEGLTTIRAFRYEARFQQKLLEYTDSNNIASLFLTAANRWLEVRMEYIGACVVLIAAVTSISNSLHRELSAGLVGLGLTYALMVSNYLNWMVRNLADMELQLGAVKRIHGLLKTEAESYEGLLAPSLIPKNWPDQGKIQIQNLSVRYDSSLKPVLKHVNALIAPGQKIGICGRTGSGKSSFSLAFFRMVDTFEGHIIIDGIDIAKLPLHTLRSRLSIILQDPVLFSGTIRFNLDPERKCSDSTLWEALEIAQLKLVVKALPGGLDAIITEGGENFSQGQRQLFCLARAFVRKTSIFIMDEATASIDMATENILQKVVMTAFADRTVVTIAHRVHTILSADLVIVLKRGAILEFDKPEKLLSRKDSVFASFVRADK
# Description: An expression vector incorporating a gene encoding human SUR1 (hSUR1) was introduced into MIN6-K8 cells by a conventional method to establish a cell line MIN6-K8, which expresses hSUR1 strongly. The MIN6-K8 cells expressing strongly hSUR1 were cultured in a buffer containing 10 nM [^3H] glibenclamide and DSC108-Na for 30 minutes. In this, the concentration of DSC108-Na in the buffer was 300 μM to 1 mM. The cells were vacuum-filtered and recovered on Whatmann GF/C filters (Whatmann International Inc.), and then the filters were washed three times with 4 mL of ice-cold buffer. After washing, radioactivities of the filters were measured with a liquid scintillation counter, and the amount of [^3H] glibenclamide bound to MIN6-K8 cells expressing strongly hSUR1 via hSUR1 was measured. Then, the value at the time of non-addition of DSC108-Na was taken as 100%, and the binding amount (%) of [^3H] glibenclamide to MIN6-K8 cells was determined as a relative value to this value.
# mouse pancreases = assay: Insulin secretion stimulation test using mice (pancreas perfusion); format: in vivo; conditions: 10 μM, 2.8 mM glucose, perfused mouse pancreas
# Description: Insulin secretion stimulation test using mouse was performed in accordance with the method described in Bonnevie-Nielsen V. Diabetes. 30. 424-9 (1981) and Miki T. Diabetes. 54. 1056-63 (2005). Male mice, 16 to 20 weeks old, fasted for 6 hours, were anesthetized by administering sodium pentobarbital at a dose of 80 mg/kg body weight. The anesthetized mouse pancreases were perfused with KRBH buffer containing 4.6% dextran and 0.25% BSA aerated at 95% O2/5% CO2.
# Subsequently, mouse pancreases were perfused with KRBH buffer containing 2.8 mM glucose and 10 μM DSC 108, and the perfused solution was collected every minute, and the concentration of insulin contained in the perfusion solution was measured with an insulin assay kit (CIS Bio international Inc.) over time. IN parallel, as a control, mouse pancreases were perfused with a KRBH buffer solution containing 2.8 mM glucose, and the concentration of insulin contained in the perfusion solution was measured in the same manner.
# [3] = biological target: T2, KATP channel (human SUR1 and human Kir6.2 reconstituted in COS-1 cells) (Homo sapiens, UniProt Q09428); assay: Electrophysiological test using KATP channel expressing COS-1 cells; format: cell-based; conditions: 300 μM diazoxide; read-out: IC50 of inhibition of polarization of COS-1 cell membrane via KATP channel induced by diazoxide
# T2 construct: expressed in transfected cells; host or cells: COS-1 cells
# T2 sequence (Q09428 whole entry): as above
# T2 sequence (Q14654 whole entry partner): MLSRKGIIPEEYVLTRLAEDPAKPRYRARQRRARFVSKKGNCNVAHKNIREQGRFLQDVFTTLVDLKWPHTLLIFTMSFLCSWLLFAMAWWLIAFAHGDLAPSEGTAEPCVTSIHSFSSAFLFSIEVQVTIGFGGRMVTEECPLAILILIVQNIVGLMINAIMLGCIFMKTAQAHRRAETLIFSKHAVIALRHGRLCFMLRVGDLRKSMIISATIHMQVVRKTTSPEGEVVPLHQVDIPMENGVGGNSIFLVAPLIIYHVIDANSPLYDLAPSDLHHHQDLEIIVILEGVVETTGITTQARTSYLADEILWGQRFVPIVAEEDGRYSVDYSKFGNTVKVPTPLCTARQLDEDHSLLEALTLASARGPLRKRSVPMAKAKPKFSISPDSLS
# Description: Expression vectors incorporating the gene encoding human SUR1 (hSUR1) and expression vector incorporating the gene encoding human Kir6.2 (hKir6.2) were introduced into COS-1 cells together, and the KATP channel was reconstituted with COS-1 cells (Inagaki N. Science. 270, 1166-70 (1995)). The cells were cultured in DMEM medium (Sigma-Aldrich Inc.) supplemented with 10% FBS and plated on a 3.5 cm dish on which glass flakes coated with collagen had been spread prior to the experiment, and incubated at 37° C. for 24 to 72 hours.
# The membrane potential of COS-1 cells reconstituted with KATP channels was determined by the method described in (Gonoi TJ Biol. Chem., 269: 16989-92 (1994)), in the current clamp mode with perforated patch clamp method. […] Inhibitory effect of DSC108 on the polarization of COS-1 cell membrane via KATP channel induced by 300 μM diazoxide (Sigma Chemical Inc.) under these conditions was measured.
# At this time, outward current induced by 300 μM diazoxide (Sigma Chemical Inc.) was measured by […] patch clamp assay, and this value was set to 0 mV. The value of outward current when DSC108, glibenclamide or glicrazaide (Sigma Chemical Inc.) was added together with diazoxide was determined to determine the inhibitory effect (IC50) of these agents on the polarization of the cell membrane induced by diazoxide.
# [4] = Measurement of blood concentration after oral administration
# Description: (§1) Peripheral blood was collected over time from the tail vein after administration. The collected blood was centrifuged to obtain plasma. An extraction solution (chloroform:methanol:water=1:2:0.8) containing 20 μM methionine sulfone was added to the plasma, followed by stirring and centrifugation. After filtering the extracted solution fraction with a 5 kD filter (Millipore Inc.), the extract was lyophilized. The extract obtained by lyophilization was dissolved in pure water and subjected to mass spectrometry. Mass spectrometry was performed using a mass spectrometer (LCMS-8050, Shimazu Inc.) fitted with liquid chromatography (Nexera UHPLC, Shimazu Inc.). Separation by liquid chromatography was performed with a double gradient of 0.1% formic acid aqueous solution and 0.1% acetonitrile formic acid solution using Discovery HS F5 column (3 μm, 2.1 mm×150 mm, Shigma-Aldrich Inc.).
# wild type mice = assay: Measurement of hypoglycemic action using wild type mice (glucose loading); format: in vivo, C57BL/6JJc1 mice; conditions: oral 10 to 100 mg/kg body weight, 20 minutes before glucose loading 1.5 g/kg
# Description: To male C57BL/6JJc1 mice (CLEA Japan Inc.) of 18 to 30 weeks old fasted for 16 hours, 10, 30 or 100 mg/kg body weight of DSC108-Na was orally administered 20 minutes before glucose loading (1.5 g glucose/kg body weight) (10 mg/kg body weight administration group, 30 mg/kg body weight administration group and 100 mg/kg body weight administration group, respectively). As a control, DSC108-Na non-administration group (vehicle administration group) was placed. Glucose concentration in the blood was measured over time over 120 minutes after the administration using Antsense III glucose analyzer (Horiba Inc.). Measurement was carried out using 4 mice in each group.
# [5] = mouse, in vivo, po, 30 mg/kg
# Description: as §1
# [6] = system: type 2 diabetes model rats; assay: Measurement of hypoglycemic action using type 2 diabetes model rats (glucose loading); format: in vivo; conditions: GK/Slc rats, oral 100 mg/kg body weight
# Description: To male GK/Slc rats (Japan SLC Inc.) 18-30 weeks old fasted for 6 hours, DSC108-Na was orally administered at 100 mg/kg body weight 20 minutes before glucose loading (1.5 g glucose/kg body weight) (DSC108-Na administration group). As a control, DSC108-Na non-administration group (vehicle administration group) was placed. The glucose concentration in the blood was measured using Antsense III glucose analyzer (Horiba Inc.). In addition, blood insulin concentration was measured by an ELISA method using an insulin measurement kit (Morinaga Inc.). Not limited to this examination, all animal tests were conducted in accordance with the provisions of the Kobe University Animal Experiment Implementation Rules with the approval of the Animal Experimental Ethics Committee of Kobe University.
structure (smiles),measurement,setting,value
O=C(O)[C@H]1CC[C@@H](NC(=S)NN(c2ccccc2)c2ccccc2)CC1 [DSC108],insulin secretion promoting ability compared between the two test compounds,MIN6-K8 cells [1]; 1 μM to 100 μM,higher insulin secretion promoting ability as compared with C8
same,insulin secretion from MIN6-K8 cells (relative to control),MIN6-K8 cells [1],promoted insulin secretion from MIN6-K8 cells in a concentration-dependent manner
same,amount of insulin secretion from MIN6-K8 cells at 100 μM compared with 30 μM,MIN6-K8 cells [1],decreased as compared with the concentration at 30 μM
same,intracellular calcium ion concentration (fluorescence 340 nm/380 nm),MIN6-K8 cells [2],increased intracellular calcium ion concentration in a concentration-dependent manner
same,membrane potential of pancreatic β cells,pancreatic β cells,−54±4 mV
same,binding of [^3H] glibenclamide to hSUR1-strongly expressed MIN6-K8 cells,human SUR1 (hSUR1),inhibited the binding of [^3H] glibenclamide to hSUR1-strongly expressed MIN6-K8 cells in a concentration-dependent manner
same,time after initiation of perfusion at which insulin concentration in the perfusion liquid increased,mouse pancreases,5 min
same,time after start of perfusion at which insulin concentration returned to baseline,mouse pancreases,9 min
same,IC50,[3],2.3 µM
"S=C(NC1CCCCC1)NN(c1ccccc1)c1ccccc1 [C8, 1,1-diphenyl-4-cyclohexyl-thiosemicarbazide]",insulin secretion from MIN6-K8 cells (relative to control),MIN6-K8 cells [1],promoted insulin secretion from MIN6-K8 cells in a concentration-dependent manner
same,amount of insulin secretion from MIN6-K8 cells at 100 μM compared with 30 μM,MIN6-K8 cells [1],decreased as compared with the concentration at 30 μM
"Cc1ccc(S(=O)(=O)NC(=O)NN2CC3CCCC3C2)cc1 (centres unmarked) [Glyclazide, gliclazide]",concentration at 120 min,"[4]; male, C57BL/6JJc1, mouse, plasma, po, 30 mg/kg",75 µM
same,time after administration of the highest blood concentration,"[4]; mice, oral, 30 mg/kg body weight",60 min
same,highest value in blood concentration,"[4]; mice, oral, 30 mg/kg body weight, plasma",approximately 100 μM
O=C(O)[C@H]1CC[C@@H](NC(=S)NN(c2ccccc2)c2ccccc2)CC1 [DSC108-Na],hypoglycemic effect (blood glucose concentration),wild type mice,dose-dependent hypoglycemic effect
same,disappearance from the blood,[5],quickly disappeared from the blood
same,highest value in blood concentration,[5],72.4 µM
same,time after administration of the highest blood concentration,[5],30 min
same,duration of the effect of lowering the glucose concentration in the blood,[6],120 min
same,blood levels of insulin,[6]; 20 minutes after administration,increase in blood levels of insulin was observed
